# According to patent US8592374B2, “Neurotrophic peptides” (Research Foundation for Mental Hygiene, Inc., priority 2007, dated 2013):
# Columns and labels:
# [1] = system: dentate gyrus progenitor cells; assay: Cell proliferation (BrdU labeled cells) in the dentate gyrus of mice given CNTF peptides i.p.; assay type: in vivo; conditions: for proliferation of dentate gyrus progenitor cells: BrdU labeling, 8-10 month old female C57BL6 mice
# Description: (§1) All experiments involving mice were done on 8-10 month old female retired breeders of C57BL6 background. A total of 33 mice were divided into 10 groups of 3 animals each (except control group which had 6 mice). The groups are described in Table 1. Details of CNTF peptides are described in Table 2.
# (§2) The animals were kept in groups of 3 per cage. The mice were given daily intraperitoneal injections of four CNTF peptides either separately or in a mixture for 2 weeks as described in Table 1. From day 2, BrdU (Bromodeoxyuridine; 150 mg/Kg) was added to the injections. The animals were sacrificed 24 hours after the last injection. Briefly, the animals were perfused transcardially with PBS and their brains taken out and dissected into halves. One hemisphere from each animal was frozen for biochemical analysis and the other was fixed in 4% paraformaldehyde for 48 hours followed by equilibration in 30% sucrose in PBS overnight. These were then processed for immunohistochemistry.
# Fixed tissues were cut into 40 μm sections on a freezing sliding microtome. One in 5 sections per brain was processed for BrdU staining and visualized by immunoflorecence. Cell counting was done on these sections to determine the number of BrdU labeled cells (representing newly born cells) in the dentate gyrus of the hippocampus. The area of counting was limited to the granule cell layer and the subgranular zone (a two-nucleus thick layer adjacent to the granule cell layer). For counting purposes, the dentate gyrus was divided into two areas, the outer granule cell layer (oGCL) consisting of one half of the granule cell layer, and the subgranular zone (SGZ) of the inner half (towards the hilus) of the granule cell layer plus a two-nucleus thick layer adjacent to the outer border of the hilus. Cell counting was done on confocal images of the sections according to the optical dissector principle. Volumetric analysis was carried out with the help of Image Pro software.
# as §2, with “table” for “Table”, “injection (FIG. 1).” for “injection.”
# (§3) Fixed tissues were cut into 40 μm sections on a freezing sliding microtome. One in 5 sections per brain was processed for BrdU staining and visualized by immunoflorecence. Cell counting was done on these sections to determine the number of BrdU labeled cells (representing newly born cells) in the dentate gyrus of the hippocampus. The area of counting was limited to the granule cell layer and the subgranular zone (a two-nucleus thick layer adjacent to the granule cell layer). For counting purposes, the dentate gyrus was divided into two areas, the outer granule cell layer (oGCL) consisting of out half of the granule cell layer, and the […] comprising of the inner half (towards the hilus) of the granule cell layer plus a two-nucleus thick layer adjacent to the outer border of the hilus. Cell counting was done on confocal images of the sections according to the optical dissector principle. Volumetric analysis was carried out with the help of Image Pro software.
# [2] = system: dentate gyrus progenitors; assay: DCX expression in BrdU labeled progenitors in the dentate gyrus; assay type: in vivo, mice; conditions: 14 day treatment group
# Description: as §1
# as §2, with “table” for “Table”, “injection (FIG. 1).” for “injection.”
# as §3
# [3] = system: neural progenitor cells of the dentate gyrus; assay: Stereological counts of BrdU-IR cells in subregions of the hippocampus, 30-day pellets; assay type: in vivo, mice
# Experimental: All in vivo studies for characterization of peptides (stereology and behavioral analysis) were performed on 8-10-month-old female retired breeders of C57Bl6 background. The animals were acclimatized for at least 3 weeks to exclude occasional pregnant mice from the studies. Mice were group-housed (3 animals per cage) with a 12:12 light:dark cycle and with free access to food and water. All procedures were conducted in accordance with approved protocols from our institutional Animal Welfare Committee.
# (§4) To study neurogenesis, mice received subcutaneous implants of extended release depot pellets containing either CNTF peptides 6a or 6c for 30 days of continuous dosing (Innovative Research of America, Sarasota, Fla.). For control groups, the pellets consisted of the carrier biopolymer only. For implantation, the mice were anesthetized with 2.5% Avertin (0.38 ml for a 25 g animal). Under sterile conditions, the pellets were then subcutaneously implanted along the anterolateral aspect of the right shoulder with a precision trochar (Innovative Research of America). The animals were then transferred to the animal colony after recovery from anesthesia. There were no complications associated with the implantation and treatment. BrdU was given as two daily i.p. injections (100 mg/kg/dose) for five days starting on day 2 of peptide treatment. Neurogenesis was assessed in the dentate gyrus (DG) by counting the number of BrdU-immunoreactive (BrdU-IR), BrdU-DCX-IR and BrdU-NeuN-IR cells in various layers of the DG. Employing principles of unbiased stereology, the optical fractionator method was used to estimate cell counts for the DG.
# At the end of treatment, all animals were anesthetized with an overdose of sodium pentobarbital and transcardially perfused with 0.1 M PBS. After perfusion, the brains were removed from the skull, the left hemisphere was immediately frozen for future biochemical analysis and the right hemisphere was fixed in 4% paraformaldehyde in 0.1 M PBS for at least 24 hours at room temperature. Tissues were then stored in 30% sucrose solutions at 4° C. until sectioning. The brains were sectioned sagittaly on a freezing sliding microtome at […] through the entire hippocampus and the sections were stored in glycol anti-freeze solution (Ethylene glycol, glycerol and 0.1 M PBS in 3:3:4 ratio) at −20° C. till further processing.
# (§5) Immunohistochemistry was performed as described elsewhere (Kuhn et al., J. Neurosci 17 (15) (1997): 5820-5829). Briefly, every 5th brain section was chosen for quantification of cell number and every 10th section was chosen for staining intensity scanning. Immunohistochemistry was performed on free floating sections. For BrdU immunohistochemistry, epitope retrieval and staining were performed as previously described (Kuhn et al., J. Neurosci 17 (15) (1997): 5820-5829).
# Neurogenesis was assessed in the DG by counting the number of BrdU-immunoreactive (BrdU-IR), BrdU-DCX-IR and BrdU-NeuN-IR cells in various layers of the DG. The granule cell layer (GCL) was subdivided into an inner and outer half (iGCL and oGCL). The iGCL consisted of the subgranular zone (SGZ, defined as a 2-3 nuclei thick layer bordering the GCL) and the inner half of the GCL adjacent to the Hilus (Hil); the outer GCL (oGCL) was defined as the half of the GCL adjacent to the Molecular layer (Mol). A cell in the middle of the GCL was considered part of the iGCL and a cell bordering the GCL in the Mol was included in oGCL counts. […] Hil included the superficial polymorphic layer.
# All sections were collected using the random uniform sampling scheme. For BrdU-IR cells, counting was performed on every 5th section using 40× oil objective of a Nikon 90i fluorescent microscope equipped with Nikon C1 three laser confocal system and a Nikon DS U1 digital camera. Employing principles of unbiased stereology, the optical fractionator method was used to estimate cell counts for the DG (West et al., Anat Rec 231 (1991): 482-497). […]
# [4] = system: granule cell layer of the dentate gyrus; assay: Stereological counts of DCX-, BrdU-NeuN- and c-Fos-NeuN-IR cells in the granule cell layer; assay type: in vivo, mice
# Experimental: as §4
# The following primary antibodies were used for immunohistochemistry: anti-BrdU (1:400; Accurate) a rat monoclonal raised against BrdU; anti-DCX (1:200; Santa Cruz Biotechnology Inc.), a goat polyclonal antibody raised against an 18-amino acid peptide representing residues […] of human doublecortin; anti-NeuN (1:500; Chemicon), a mouse monoclonal antibody raised against purified cell nuclei from mouse brain; Anti-c-Fos (Ab-5) (1:500; Calbiochem), a rabbit polyclonal antibody raised against a synthetic peptide corresponding to amino-acids 4-17 of human c-Fos; SMI52 (1:1000; Sternberger Monoclonals), a mouse monoclonal antibody specific for the mature neuronal marker MAP2a,b; anti-synaptophysin, SYN (1:200; Chemicon), a mouse monoclonal antibody raised against vesicular fraction of bovine brain. The following secondary antibodies were used: Alexa 488-conjugated goat anti-mouse IgG antibody and Alexa 594-conjugated goat anti-rabbit or anti-rat IgG antibody (Molecular Probes); biotinylated anti-rat IgG antibody and Cy5-conjugated goat anti-mouse antibody (Jackson ImmunoResearch).
# as §5
# For BrdU-DCX-, BrdU-NeuN-, and c-Fos-NeuN-IR cells, only GCL (consisting of iGCL and oGLC described above) was counted using 100× oil objective in every 10th section. To ensure objectivity, z-stacks were collected for each double IR cell and analyzed later by generating maximum projection and 3D constructs.
# normal adult mice = assay: Morris Water Maze task, CNTF 6a / CNTF 6c pellets 30 days; assay type: in vivo
# Experimental: For behavioral studies, performance on the Morris Water Maze task was assessed in three groups of 10 mice each (placebo, CNTF6a and CNTF6c) which received peptide treatment for 30 days. To avoid daily stress due to injections, all animals undergoing behavioral studies received subcutaneous implants of CNTF 6a, CNTF 6c or placebo pellets as described above.
# All animals for behavioral testing were coded such that the experimentator was blind to the assignment of the animals to specific treatment groups. The Morris Water Maze procedure was performed using a 110 cm diameter circular tank. Before training, the mice were handled gently for 2-3 min/day during 3 days to minimize non-specific stress. Acquisition was started with the submerged (invisible) escape platform in the North-East quadrant and each animal was given 60 sec to find the submerged escape platform. […] Five such acquisition trials were given on each day, for four consecutive days. A test for retention, or probe trial, was given 24 hours later. During the probe trial the mouse was allowed to swim in the tank without the escape platform for 60 seconds. This was followed by second and third probe trials 15 and 30 days from the first probe trial. Each probe trial was immediately followed by a “retraining session” consisting of 5 trials/animal to consolidate learned behavior.
# The measures of learning were the time and distance swum to reach the escape platform. For retention during the probe trial, the tank was divided into four imaginary quadrants and a small zone where the escape platform had been (virtual platform). The measures of retention were the percent of time spent and the percent of distance swum in each quadrant, and the number of entries into the platform zone.
# Mouse behavior in the Morris Water Maze was monitored by a Samsung Digital Camera (SDC 4304) mounted to the ceiling and tracked and timed by a SMART (Pan Lab/San Diego Instruments) version 2.0.14 software.
# Since normal adult mice were used as experimental animals, it was crucial not to miss any effect on memory acquisition and learning that the 30-day peptide treatment might have had. Therefore, a partial training paradigm was used to evaluate learning and memory in the Morris Water Maze. Treated mice were trained on the Morris Water Maze for a total of 20 sessions spanning 4 days after which they were subjected to the first probe trial (P1). Two additional probe trials (P2 and P3) were administered 15 and 30 days after P1. […] Learning was evaluated in terms of latency and distance traveled to reach the invisible escape platform. Retention was measured on probe trials by the percent of time and travel distance in the target quadrant, and the number of crossings of the virtual platform.
# [5] = daily i.p. injections for 2 weeks
# [6] = both concentrations (0.5 and 5 nmoles/animal)
# [7] = 30-day treated mice (n = 5/group)
substance,measurement,setting,value
"CHQGCGGLFEC [Peptide 10, CNTF loop peptide, used as control]",proliferation of dentate gyrus progenitor cells,[1]; [5],no effect
same,differentiation of dentate gyrus progenitors into DCX (doublecortin) expressing cells,[2],did not have any effect
EDQQVHFTPTEG (neurotrophic and/or neurogenic peptide) [Peptide 9],cell proliferation in the SGZ,[1]; 0.5 nmoles/animal,increased cell proliferation
same,proliferation of dentate gyrus progenitor cells,[1]; [5],statistically significant increase
same,differentiation of dentate gyrus progenitors into DCX (doublecortin) expressing cells,[2],did not have any effect
IPRNEADGMPINV (neurotrophic and/or neurogenic peptide) [Peptide 5],cell proliferation in the SGZ (subgranular zone),[1]; [6],increased cell proliferation
same,cell proliferation in the oGCL (outer portion of the granule cell layer),[1]; [6],increased cell proliferation
same,proliferation of dentate gyrus progenitor cells compared with Peptide 9,[1]; [5],more proliferation than Peptide 9
same,proliferation of dentate gyrus progenitor cells,[1]; [5],statistically significant increase
same,differentiation of dentate gyrus progenitors into DCX (doublecortin) expressing cells,[2],did not have any effect
V-G-D-G (VGDG; neurotrophic and/or neurogenic peptide) [CNTF 6a],BrdU-IR cell numbers in the four sub-regions of the DG,[3]; 30-day pellets,no effect
same,increase of BrdU-IR cell counts in the GCL compared to placebo,"[3]; 30-day pellets, 50 nmol/peptide/animal/day",not significant effect
same,"Stereological counts (±SEM) of BrdU-IR cells, GCL",[3]; [7],493 ± 28
same,"Stereological counts (±SEM) of BrdU-IR cells, Hil",[3]; [7],126 ± 8
same,"Stereological counts (±SEM) of BrdU-IR cells, Mol",[3]; [7],538 ± 99
same,"Stereological counts (±SEM) of BrdU-IR cells, iGCL",[3]; [7],382 ± 15
same,"Stereological counts (±SEM) of BrdU-IR cells, oGCL",[3]; [7],110 ± 13
same,Stereological counts (±SEM) of cells expressing DCX in the granule cell layer,[4]; [7],360 ± 33
same,"Stereological counts (±SEM), NeuN-BrdU/BrdU in the granule cell layer",[4]; [7],19 ± 2
same,Stereological counts (±SEM) of c-fos-NeuN cells in the granule cell layer,"[4]; 30-day treated mice (n = 5/group), basal activity",214 ± 27
same,increase in BrdU-NeuN-IR cells in the GCL compared with placebo,[4]; 30-day treatment,no effect
same,increase of DCX-IR cells in the GCL compared to placebo,[4]; 30-day treatment,did not show any significant difference
same,learning in the spatial reference memory task (swim latencies),"normal adult mice; 30-day pellets, 20 training sessions over 4 days",no effect
same,percent time spent in the target quadrant across three probe trials,"normal adult mice; P1, P2, P3",reduced this time during subsequent P2 and P3
